The nature of assay [1]: Inhibition of Saccharomyces sp. alpha-glucosidase.
Assay [2] concerns the target T1, Oxysterols receptor LXR-alpha (Homo sapiens, UniProt Q13133).
T1 sequence (Q13133 whole entry): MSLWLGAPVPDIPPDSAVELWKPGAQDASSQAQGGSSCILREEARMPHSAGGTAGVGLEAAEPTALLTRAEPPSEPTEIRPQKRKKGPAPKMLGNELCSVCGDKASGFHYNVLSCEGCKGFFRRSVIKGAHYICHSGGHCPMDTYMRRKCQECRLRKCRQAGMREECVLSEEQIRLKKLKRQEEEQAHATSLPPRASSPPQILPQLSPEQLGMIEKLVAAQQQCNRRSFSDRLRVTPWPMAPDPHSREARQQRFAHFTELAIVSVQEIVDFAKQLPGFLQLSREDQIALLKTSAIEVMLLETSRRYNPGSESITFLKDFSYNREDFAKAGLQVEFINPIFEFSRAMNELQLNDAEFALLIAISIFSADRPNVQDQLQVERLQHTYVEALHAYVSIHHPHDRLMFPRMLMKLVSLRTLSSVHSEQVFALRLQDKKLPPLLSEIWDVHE
As to the kind of experiment: Antagonist activity at human recombinant LXRalpha expressed in HEK293 cells by luciferase reporter gene assay. Format: functional, cell-based. Background: A reporter such as luciferase makes a cellular process visible.

Assay [3] addresses T2, Oxysterols receptor LXR-beta (Homo sapiens, UniProt P55055).
T2 sequence (P55055 whole entry): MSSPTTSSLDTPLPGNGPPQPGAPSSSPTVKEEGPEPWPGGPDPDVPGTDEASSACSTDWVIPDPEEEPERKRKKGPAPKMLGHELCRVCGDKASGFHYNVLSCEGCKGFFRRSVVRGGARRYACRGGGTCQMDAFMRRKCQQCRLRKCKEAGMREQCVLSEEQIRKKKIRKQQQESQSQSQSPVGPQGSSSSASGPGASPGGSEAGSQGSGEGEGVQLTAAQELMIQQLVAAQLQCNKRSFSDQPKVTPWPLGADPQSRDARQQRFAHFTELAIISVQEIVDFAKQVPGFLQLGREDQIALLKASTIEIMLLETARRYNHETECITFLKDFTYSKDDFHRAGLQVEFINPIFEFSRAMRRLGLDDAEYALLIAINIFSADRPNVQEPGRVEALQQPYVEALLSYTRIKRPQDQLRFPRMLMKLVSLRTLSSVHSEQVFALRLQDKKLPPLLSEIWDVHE
As to the kind of experiment: Antagonist activity at human recombinant LXRbeta expressed in HEK293 cells by luciferase reporter gene assay. In kind it is functional, cell-based.

The nature of assay [4]: Agonist activity at LXR. Format: functional.

The source made the active and inactive calls. The calls are words filed in the database; no cut-off is given here.

By IC50 is commonly meant the concentration that inhibits the measured activity by half. `COc1ccc2cc1Oc1ccc(cc1)CCc1ccccc1-c1ccc(cc1)CC2`: the IC50 in assay [1] is over 100 µM; in assay [2], 7.6 µM; in assay [3], 41 µM. Besides, in assay [4], the outcome was inactive.
Molecule `O=S(=O)(c1ccccc1)N(CC(F)(F)F)c1ccc(C(O)(C(F)(F)F)C(F)(F)F)cc1` [T091317] registered an IC50 in assay [1] of 100 µM. Further, in assay [4], the outcome was inactive.
On to `COc1ccc2c(c1)CCc1ccc(cc1)Oc1cc(ccc1OC)CCc1ccc-2c(OC)c1`, for which the IC50 in assay [1] is 49 µM; in assay [2], 2 µM; in assay [3], 14 µM. In addition, in assay [4], the outcome was inactive.
The like results for `Oc1ccc2cc1Oc1ccc(cc1)CCc1ccccc1-c1ccc(cc1O)CC2` were, in that order, 8.6 µM, 6.6 µM, 13 µM and “inactive”.
For the molecule `COc1cc2ccc1-c1ccccc1CCc1ccc(cc1)Oc1cccc(c1)CC2`, the IC50 in assay [1] worked out at 67 µM; in assay [2] it was 2.5 µM; in assay [3], 11 µM. Besides, the result in assay [4] was inactive.
Regarding `COc1ccc2c(c1)CCc1ccc(cc1)Oc1cc(ccc1OC)CCc1ccc-2cc1`, the IC50 came to 40 µM in assay [1], 3.6 µM in assay [2] and 26 µM in assay [3]. In addition, in assay [4], the outcome was inactive.
The matching figures for `Oc1ccc2c(c1)CCc1ccc(cc1)Oc1cc(ccc1O)CCc1ccc-2cc1`: 4.9 µM, 4.4 µM, 7.6 µM and “inactive”.
`O=C(O)Cc1cccc(OCCCN(Cc2cccc(C(F)(F)F)c2Cl)CC(c2ccccc2)c2ccccc2)c1`: it took 4.8 µM to reach half-maximal inhibition in assay [1] (IC50). For the same molecule, the result in assay [4] was inactive.
Regarding `CC(C)c1cccc(C(C)C)c1N1C(=O)c2ccccc2C1=S`, the figures for the IC50 in assay [1], in assay [2] and in assay [3] were 8 µM, 3.1 µM and 18 µM, respectively. The result in assay [4] was inactive.
The matching figures for `Oc1ccc2c(c1)CCc1ccc(cc1)Oc1cc(ccc1O)CCc1ccc-2c(O)c1` [RICCARDI C]: 9.9 µM, 4.9 µM, 6.6 µM and “inactive”.
The matching figures for `Oc1ccc2cc1Oc1ccc(cc1)CCc1ccccc1-c1ccc(cc1)CC2`: 15 µM, 5.7 µM, 14 µM and “inactive”.
The matching figures for `Oc1ccc2c(c1)CCc1ccc(cc1)Oc1cccc(c1)CCc1ccc-2c(O)c1`: 5.1 µM, 8.4 µM, 10 µM and “inactive”.
On to `O=c1c(-c2ccc(O)cc2)coc2cc(O)cc(O)c12` [GENISTEIN], for which the results for the IC50 in assay [1], in assay [2] and in assay [3] were 100 µM, 31 µM and 22 µM, respectively. The result in assay [4] was inactive.
`CCCCCCc1ccccc1N1C(=O)c2ccccc2C1=O` displayed a 50% inhibitory concentration (IC50) in assay [1] of 24.7 µM. Besides, in assay [4], the outcome was inactive.
On to `OC[C@H]1NC[C@H](O)[C@@H](O)[C@@H]1O` [DUVOGLUSTAT], for which the values for the IC50 in assay [1], in assay [2] and in assay [3] were 250 µM, over 100 µM and over 100 µM, respectively. Also, in assay [4], the result was inactive.
Turning to `CC(C)CC[C@@H](O)[C@@H](C)[C@H]1CC[C@H]2[C@@H]3CC=C4C[C@@H](O)CC[C@]4(C)[C@H]3CC[C@]12C` [22(R)-HYDROXYCHOLESTEROL], the IC50 in assay [1] amounted to 100 µM. The outcome in assay [4] was inactive.
For the molecule `Oc1cc2ccc1-c1ccccc1CCc1ccc(cc1)Oc1cccc(c1)CC2`, the IC50 in assay [1] is 19 µM; in assay [2] it was 3.2 µM; in assay [3], 7.3 µM. Further, the outcome in assay [4] was inactive.
On to `c1cc2cc(c1)Oc1ccc(cc1)CCc1ccccc1-c1ccc(cc1)CC2` [DEOXYRICCARDIN C], for which the IC50 in assay [1] came out at 18 µM; in assay [2] it was 7.1 µM; in assay [3], 77 µM. The outcome in assay [4] was inactive.
The matching figures for `COc1ccc2c(c1)CCc1ccc(cc1)Oc1cccc(c1)CCc1ccc-2c(OC)c1`: over 30 µM, 25 µM, 46 µM and “inactive”.
`O=C1c2ccccc2C(=O)N1c1ccccc1CCc1ccccc1`: the half-inhibitory concentration (IC50) in assay [1] stood at 16.2 µM. Moreover, in assay [4], the outcome was inactive.
As to `COc1ccc2cc1Oc1ccc(cc1)CCc1ccccc1-c1ccc(cc1OC)CC2`, the results for the IC50 in assay [1], in assay [2] and in assay [3] were 42 µM, 2.2 µM and 12 µM, respectively. Besides, in assay [4], the outcome was inactive.
